The values below come from US7022855B2, “Halogen-substituted quinoline derivatives and ectoparasite control agent” (Meiji Seika Kaisha, Ltd., priority 2001, dated 2006).

What all share (format): in vivo
The subject of experiment [1] is Haemaphysalis longicornis. Kind of experiment: Tickcidal effect against Haemaphysalis longicornis (dry film on glass Schale). The conditions noted are these: larva ticks, 24 hr, 25° C., relative humidity 100%; for pest or weed control at 10 ppm: Haemaphysalis longicornis, read-out: Death rate, %; for Death rate, %: 10 ppm. How it is done: A test compound solution (1.0 ml) prepared by dissolving a test compound in acetone and diluting the solution with acetone to 10 ppm was dropped on a glass Schale having a diameter of 9 cm. Acetone was evaporated at room temperature to form a dry film of the test compound at the bottom of the Schale. Larva ticks of Haemaphysalis longicornis (40 to 100 head) were released in the Petri dish, and the Schale was then lidded and was hermetically sealed by covering with a polyethylene sheet. Rearing was carried out at a temperature of 25° C. and a relative humidity of 100% under fully darkened conditions. The number of ticks, which have fallen on their side, was counted 24 hr after the initiation of rearing. The death rate (%) was determined from the number of dead ticks. The test was repeated twice.

The test system of the next experiment is Dermanyssus gallinae. Kind of experiment: Miticidal effect against Dermanyssus gallinae (treated Pasteur pipette, contact test). The conditions noted are these: 50 ppm in acetone, sucking adult mites, 24 hr after treatment, 25° C.; for pest or weed control at 50 ppm: Dermanyssus gallinae, read-out: Death rate, %. From the text:
(§1) The tip of a Pasteur pipette was sealed with Parafilm, and a sample compound diluted with acetone to 50 ppm was poured into the pipette from its top. The Parafilm in the tip of the pipette was removed one min after the pouring to discharge the test solution, and the pipette was air dried. Thereafter, an absorbent cotton was inserted into the upper end of the pipette, and 10 sucking adult mites of Dermanyssus gallinae were released in the pipette. The tip of the pipette was sealed with Hematoseal, and the pipette was then placed in a desiccator containing a saturated ammonium sulfate solution in its bottom and was stored under fully darkened conditions at 25° C. The mites were observed under a stereomicroscope 24 hr after the treatment to judge whether the mites were dead or survived, followed by determination of the death rate of mites (%).

For another experiment, the system named is Ctenocephalides felis. Kind of experiment: Insecticidal effect against Ctenocephalides felis (dry film in glass tube). The conditions noted are these: non-sucking adult fleas, 24 hr, 25° C., relative humidity 90%. How it is done: Test compound solutions (0.5 ml) prepared by dissolving a test compound in acetone and diluting the solutions with acetone to designated concentrations were placed respectively in glass tubes (inner diameter 2.6 cm, height 12 cm), and acetone was evaporated at room temperature to form a dry film of the test compound at the bottom of each glass tube. Non-sucking adult fleas (10 heads) of Ctenocephalides felis were released in the glass tubes. The glass tubes were then lidded. Whether the fleas were dead or survived was judged 24 hr after the initiation of rearing. The death rate (%) was determined from the number of dead fleas. Rearing was carried out at a temperature of 25° C. and a relative humidity of 90% under fully darkened conditions. The test was repeated three times.

The next experiment has as its system Ornithonyssus sylviarum. In words: Miticidal effect against Ornithonyssus sylviarum (treated Pasteur pipette, contact test). As to conditions: 50 ppm in acetone, sucking adult mites, 24 hr after treatment, 25° C., read-out: Death rate, %.
From the text: as §1, with “Ornithonyssus sylviarum” for “Dermanyssus gallinae”, “rate” for “rate of mites”

On to `C#CCCOC(=O)Oc1c(C)c(CC)nc2ccc(F)c(F)c12` [Compound 56, 2-ethyl-3-methyl-4-(3-butynyl)oxycarbonyloxy-5,6-difluoroquinoline], for which, in experiment [1], the pest or weed control at 10 ppm is 100%. Besides, in the experiment with Dermanyssus gallinae, the pest or weed control at 50 ppm was determined as 95%.

As to `CCc1nc2ccc(F)c(F)c2c(OC(=O)C2CC2)c1C` [Compound 2, 2-ethyl-3-methyl-4-cyclopropanecarbonyloxy-5,6-difluoroquinoline], the “Death rate, %” value in the experiment on Ctenocephalides felis (4 ppm) turned out to be 97%; in the experiment with Ctenocephalides felis (20 ppm), 100%. The pest or weed control at 10 ppm in experiment [1] was 100%. Also, the pest or weed control at 50 ppm in the experiment with Ornithonyssus sylviarum and with Dermanyssus gallinae was 100% throughout.

Consider `CCOC(=O)Oc1c(C)c(C)nc2ccc(F)c(F)c12` [Compound 45, 2,3-dimethyl-4-ethyloxycarbonyloxy-5,6-difluoroquinoline], for which, in the experiment with Dermanyssus gallinae, the pest or weed control at 50 ppm was determined as 100%.

For `CCc1nc2ccc(F)c(F)c2c(OC(=O)OC(C)C)c1C` [Compound 14, 2-ethyl-3-methyl-4-isopropoxycarbonyloxy-5,6-difluoroquinoline], the pest or weed control at 50 ppm in the experiment on Ornithonyssus sylviarum is 100%.

In the case of `CC(=O)Oc1c(C)c(C)nc2ccc(Cl)c(Cl)c12` [Compound 65, 2,3-dimethyl-4-acetoxy-5,6-dichloro-quinoline], the pest or weed control at 50 ppm with Dermanyssus gallinae is 80%.

For `CCc1nc2ccc(F)c(F)c2c(OC(C)=O)c1C` [Compound 12, 2-ethyl-3-methyl-4-acetyloxy-5,6-difluoroquinoline], the pest or weed control at 50 ppm in the experiment with Ornithonyssus sylviarum is 100%; in the experiment with Dermanyssus gallinae, 95%.

With `CCc1nc2ccc(F)c(F)c2c(OC(=O)C(C)C)c1C` [Compound 48, 2-ethyl-3-methyl-4-isobutyryloxy-5,6-difluoroquinoline], the pest or weed control at 50 ppm in the experiment with Dermanyssus gallinae is 100%.

On to `C#CCCCC(=O)Oc1c(C)c(C)nc2ccc(F)c(F)c12` [Compound 58, 2,3-dimethyl-4-(5-hexynoyloxy)-5,6-difluoroquinoline], for which the pest or weed control at 50 ppm in the experiment on Dermanyssus gallinae is 80%.

In the case of `Cc1nc2ccc(F)c(F)c2c(OC(=O)/C=C/Cl)c1C` [Compound 53, 2,3-dimethyl-4-(3-transchloroacryloyloxy)-5,6-difluoroquinoline], in the experiment with Dermanyssus gallinae, the pest or weed control at 50 ppm turned out to be 100%.

Regarding `COC(=O)Oc1c(C)c(C)nc2ccc(F)c(C(F)(F)F)c12` [Compound 62, 2,3-dimethyl-4-methoxycarbonyloxy-5-trifluoromethyl-6-fluoroquinoline], the pest or weed control at 50 ppm in the experiment on Dermanyssus gallinae turned out to be 100%.

Regarding `CSC(=O)Oc1c(C)c(C)nc2ccc(F)c(F)c12` [Compound 46, 2,3-dimethyl-4-methanethiolcarbonyloxy-5,6-difluoro-quinoline], the “Death rate, %” value (in experiment [1]; in the experiment with Dermanyssus gallinae) was 100% in each case.

Turning to `COC(=O)Oc1c(C)c(C)nc2ccc(Cl)c(Cl)c12` [Compound 67, 2,3-dimethyl-4-methoxycarbonyloxy-5,6-dichloroquinoline], in the experiment with Dermanyssus gallinae, the pest or weed control at 50 ppm is 100%.

For `CCC(=O)Oc1c(C)c(CC)nc2ccc(F)c(F)c12` [Compound 30, 2-ethyl-3-methyl-4-propionyloxy-5,6-difluoroqinoline], the “Death rate, %” value (in experiment [1]; with Dermanyssus gallinae) was 100% in each case.

Consider `CCOC(=O)Oc1c(C)c(CC)nc2ccc(F)c(F)c12` [Compound 33, 2-ethyl-3-methyl-4-ethoxycarbonyl-oxy-5,6-difluoroquinoline], for which the pest or weed control at 50 ppm in the experiment with Dermanyssus gallinae was 100%.

As for `CCc1nc2ccc(F)c(F)c2c(OC(=O)OC)c1C` [Compound 24, 2-ethyl-3-methyl-4-methoxycarbonyloxy-5,6-difluoroquinoline], the “Death rate, %” value with Ctenocephalides felis (4 ppm) was found to be 84%; in the experiment with Ctenocephalides felis (20 ppm), 100%. The pest or weed control at 10 ppm in experiment [1] came to 100%. Moreover, the pest or weed control at 50 ppm in the experiment with Ornithonyssus sylviarum and with Dermanyssus gallinae was 100% in each case.

Turning to `C=COC(=O)Oc1c(C)c(C)nc2ccc(F)c(F)c12` [Compound 51, 2,3-dimethyl-4-vinyloxycarbonyloxy-5,6-difluoroquinoline], the pest or weed control at 50 ppm in the experiment on Dermanyssus gallinae was determined as 90%.

In the case of `C#CCOC(=O)Oc1c(C)c(CC)nc2ccc(F)c(F)c12` [Compound 41, 2-ethyl-3-methyl-4-propargyloxycarbonyloxy-5,6-difluoroquinoline], the pest or weed control at 10 ppm in experiment [1] came out at 100%. Further, the pest or weed control at 50 ppm in the experiment with Dermanyssus gallinae was found to be 100%.

For the molecule `CCc1nc2cc(F)c(F)cc2c(OC(=O)C2CC2)c1C` [Compound 1, 2-ethyl-3-methyl-4-cyclopropanecarbonyloxy-6,7-difluoroquinoline], in the experiment with Ctenocephalides felis (20 ppm), the “Death rate, %” value is on record as 100%. For the same molecule, the pest or weed control at 50 ppm with Ornithonyssus sylviarum amounted to 80%.

On to `CCc1nc2ccc(F)c(F)c2c(OC(=O)SC)c1C` [Compound 39, 2-ethyl-3-methyl-4-methanethiolcarbonyloxy-5,6-difluoroquinoline], for which the “Death rate, %” value in the experiment on Ctenocephalides felis (4 ppm) is 80%; in experiment [1], 100%; in the experiment with Dermanyssus gallinae, 100%.

For the molecule `CC(=O)Oc1c(C)c(C)nc2ccc(F)c(F)c12` [Compound 44, 2,3-dimethyl-4-acetoxy-5,6-difluoro-quinoline], in experiment [1], the pest or weed control at 10 ppm is 100%. Also, the pest or weed control at 50 ppm in the experiment with Dermanyssus gallinae turned out to be 100%.

Regarding `COC(=O)Oc1c(C)c(C)nc2ccc(F)c(F)c12` [Compound 25, 2,3-dimethyl-4-methoxycarbonyl-oxy-5,6-difluoroquinoline], the pest or weed control at 10 ppm in experiment [1] was 100%. Besides, the pest or weed control at 50 ppm in the experiment on Ornithonyssus sylviarum and in the experiment on Dermanyssus gallinae was 100% each time.

For the molecule “2,3-dimethyl-4-propargloxycarbonyloxy-5,6-difluoroquinoline [Compound 50]”, the “Death rate, %” value in experiment [1] was 100%; in the experiment with Dermanyssus gallinae, 95%.

Consider `CCc1nc2ccc(F)c(Cl)c2c(OC(=O)C2CC2)c1C` [Compound 21, 2-ethyl-3-methyl-4-cyclopropanecarbonyloxy-5-chloro-6-fluoroquinoline], for which the pest or weed control at 50 ppm in the experiment with Ornithonyssus sylviarum worked out at 100%.

Consider `Cc1nc2ccc(F)c(F)c2c(OC(=O)C2CC2)c1C` [Compound 16, 2,3-dimethyl-4-cyclopropanecarbonyloxy-5,6-difluoroquinoline], for which the pest or weed control at 10 ppm in experiment [1] turned out to be 100%. In addition, the pest or weed control at 50 ppm in the experiment on Ornithonyssus sylviarum is 80%; with Dermanyssus gallinae, 100%.

With `C=CCOC(=O)Oc1c(C)c(C)nc2ccc(F)c(F)c12` [Compound 57, 2,3-dimethyl-4-allyloxycarbonyloxy-5,6-difluoroquinoline], the pest or weed control at 50 ppm in the experiment on Dermanyssus gallinae turned out to be 100%.

On to `Cc1nc2ccc(F)c(F)c2c(OC(=O)/C=C\Cl)c1C` [Compound 54, 2,3-dimethyl-4-(3-cischloroacryloyloxy)-5,6-difluoroquinoline], for which the pest or weed control at 50 ppm with Dermanyssus gallinae stood at 100%.

Regarding `C#CCCOC(=O)Oc1c(C)c(C)nc2ccc(F)c(F)c12` [Compound 52, 2,3-dimethyl-4-(3-butynyl)oxycarbonyloxy-5,6-difluoroquinoline], the “Death rate, %” value with Ctenocephalides felis (4 ppm) stood at 70%. The pest or weed control at 10 ppm in experiment [1] was 100%. For the same molecule, in the experiment with Dermanyssus gallinae, the pest or weed control at 50 ppm amounted to 100%.

As for `CCCSC(=O)Oc1c(C)c(CC)nc2ccc(F)c(F)c12` [Compound 55, 2-ethyl-3-methyl-4-propanethiolcarbonyloxy-5,6-difluoroquinoline], the “Death rate, %” value in the experiment on Dermanyssus gallinae is 100%.

On to `CCCCOC(=O)Oc1c(C)c(CC)nc2ccc(F)c(F)c12` [Compound 13, 2-ethyl-3-methyl-4-butoxycarbonyloxy-5,6-difluoroquinoline], for which, in the experiment on Dermanyssus gallinae, the pest or weed control at 50 ppm came to 85%.

As to `CCc1nc2ccc(F)c(Cl)c2c(OC(C)=O)c1C` [Compound 19, 2-ethyl-3-methyl-4-acetyloxy-5-chloro-6-fluoroquinoline], the “Death rate, %” value in the experiment on Ctenocephalides felis (4 ppm) is recorded as 100%. Also, the pest or weed control at 50 ppm with Ornithonyssus sylviarum came out at 100%.
